Measurements from PMC4941945 (Current protocols in pharmacology / editorial board, S.J. …, 2015).
pKi: −log10 of the molar value. Read-outs that look alike come from different tables or passages of the source.

Tests used:
sigma-2 receptor (S2R) = details: read-out: KI S2R, cited from earlier work
sigma-1 receptor (S1R) = details: read-out: KI S1R, cited from earlier work
S1R + S2R = experiment: Saturation binding of [3H]-DTG in rat liver; details: RL membranes
S1R knockout mice = details: ref Fontanilla et al., 2009; cited from earlier work
[1] = ref 8 Husbands SM et al (1997) J Med Chem 40:4340-4346
[2] = ref 1 Matsumoto RR et al. (1995) EJP 280: 301-310
[3] = ref 2 Fontanilla D et al. (2009) Science 323(5916): 934-937

C[C@@H]1CN(CCCn2c3ccccc3c3ccccc32)C[C@H](C)N1 [Rimcazole]
pKi (sigma-2 receptor (S2R); [1]): 6.41

Cc1ccccc1NC(=N)Nc1ccccc1C [[^3H]-DTG, [^3H]-1,3-di(2-tolyl)guanidine]
S1R + S2R Binding, Specific Binding (S1R + S2R; measured [3H]-DTG concentration 0.25 nM): 0.44 pmol/mg
S1R + S2R Binding, Specific Binding (S1R + S2R; measured [3H]-DTG concentration 0.8 nM): 0.94 pmol/mg
S1R + S2R Binding, Specific Binding (S1R + S2R; measured [3H]-DTG concentration 2.7 nM): 2.21 pmol/mg
S1R + S2R Binding, Specific Binding (S1R + S2R; measured [3H]-DTG concentration 9 nM): 6.52 pmol/mg
S1R + S2R Binding, Specific Binding (S1R + S2R; measured [3H]-DTG concentration 27 nM): 11.36 pmol/mg
S1R + S2R Binding, Specific Binding (S1R + S2R; measured [3H]-DTG concentration 92 nM): 18.55 pmol/mg
S1R + S2R Binding, Specific Binding (S1R + S2R; measured [3H]-DTG concentration 310 nM): 20.14 pmol/mg

CN1CCN(CCc2ccc(Cl)c(Cl)c2)CC1 [BD1063]
pKi (sigma-2 receptor (S2R); [2]): 6.35
pKi (sigma-1 receptor (S1R); [2]): 8.04

CN(C)CCN(C)CCc1ccc(Cl)c(Cl)c1 [BD1047]
pKi (sigma-2 receptor (S2R); [2]): 7.33
pKi (sigma-1 receptor (S1R); [2]): 9.03

O=C(OCCN1CCOCC1)C1(c2ccccc2)CCCCC1 [PRE-084]
pKi (sigma-2 receptor (S2R); ref 6 Maurice T. et al. (1999) Br J Pharmacol 127(2): 335-342): 4.88

CN(C)CCc1c[nH]c2ccccc12 [Dimethyltryptamine, N,N-dimethyltryptamine]
response in a behavioral assay measuring motor coordination (S1R knockout mice): failed to respond
pKi (sigma-2 receptor (S2R); [3]): 4.66
pKi (sigma-1 receptor (S1R); [3]): 4.83
